“Also recorded” adds a separate entry of the source.
Key:
[1] = test system: cultured rat pituitary cells; assay: secretion of ACTH and β-endorphin by cultured rat pituitary cells in vitro; format: cell-based
Source text: (§1) The synthetic and the natural rCRF were examined for their effects on the secretion of ACTH and β-endorphin in vitro and the synthetic rCRF was also examined in vivo.

[2] = activity and learning performance after administration into the ventricles; format: in vivo; settings: administered into the ventricles, rats
Source text: Because ACTH and β-END secretion is the "sine qua non" of an animal's response to stress, it was not surprising that rCRF has significant effects on the brain as a mediator of the body's stress response. Accordingly, rCRF may also find application in modifying the mood, learning and behavior of normal and mentally disordered individuals. Because rCRF and its analogs elevate the levels of ACTH, β-END, β-lipotropin, other pro-opiomelanocortin gene products and corticosterone, its administration can be used to induce their effects on the brain and its periphery to thereby influence memory, mood, pain appreciation, etc., and more specifically, alertness, depression and/or anxiety.

[3] = lowering of blood pressure in dogs; format: in vivo
[4] = lowering of blood pressure in rats; format: in vivo
[5] = test system: ACTH and β-endorphin-like (β-END-LI) secretion; assay: ACTH and β-END-LI secretion in vivo after intravenous administration; set-up: species or system rats; settings: for stimulation of ACTH and β-END-LI secretion in vivo (words): several rat preparations
Source text: as §1

[6] = test system: secretion of ACTH and β-endorphin; settings: reported; cited from earlier work
[7] = mammals; reported; cited from earlier work

| Compound | EC50 ([1]; concentration giving half-maximal response, cultured rat pituitary cells) [pM] | minimal response, secretion of ACTH and β-endorphin ([1]; concentration giving minimal response, cultured rat pituitary cells) | maximal concentrations, secretory response at a plateau level ([1]; cultured rat pituitary cells) [nM] | stimulation of secretion of ACTH and β-endorphin in vitro ([1]; in vitro) | activity [2] | learning performance [2] | lowering of blood pressure [3] | lowering of blood pressure ([4]; rats) | lowering of blood pressure ([4]; species not given, general procedure of Example III) | elevation of ACTH and β-endorphin-like (β-END-LI) secretion ([5]; in vivo doses from 30 ng to 3 μg/Kg of body weight) | stimulation of ACTH and β-END-LI secretion in vivo (words) [5] | stimulation of ACTH and β-END-LI secretion in vivo (words) ([5]; listed as Synthetic rCRF) | time plasma levels of ACTH and β-END-LI are elevated ([5]; intravenous, nembutal-anesthesized male rats and quiescent male or female rats with indwelling cannulae) [min] | biological activity in stimulating the secretion of ACTH and β-endorphin [6] | biological activity in lowering blood pressure [7] |
| --- | --- | --- | --- | --- | --- | --- | --- | --- | --- | --- | --- | --- | --- | --- | --- |
| CC[C@H](C)[C@H](NC(=O)[C@@H](NC(=O)[C@H](CCC(=O)O)NC(=O)[C@H](CCSC)NC(=O)[C@H](CC(C)C)NC(=O)[C@H](CCCCN)NC(=O)[C@H](CCCNC(=N)N)NC(=O)[C@H](CC(N)=O)NC(=O)[C@H](CO)NC(=O)[C@H](Cc1c[nH]cn1)NC(=O)[C@H](C)NC(=O)[C@H](CCC(N)=O)NC(=O)[C@H](CCC(N)=O)NC(=O)[C@H](C)NC(=O)[C@H](CC(C)C)NC(=O)[C@H](CCC(N)=O)NC(=O)[C@H](CCC(=O)O)NC(=O)[C@H](C)NC(=O)[C@H](CCCNC(=N)N)NC(=O)[C@H](C)NC(=O)[C@H](CCSC)NC(=O)[C@H](CCC(=O)O)NC(=O)[C@H](CC(C)C)NC(=O)[C@@H](NC(=O)[C@H](CCC(=O)O)NC(=O)[C@H](CCCNC(=N)N)NC(=O)[C@H](CC(C)C)NC(=O)[C@H](CC(C)C)NC(=O)[C@H](Cc1c[nH]cn1)NC(=O)[C@H](Cc1ccccc1)NC(=O)[C@@H](NC(=O)[C@H](CC(C)C)NC(=O)[C@H](CC(=O)O)NC(=O)[C@H](CC(C)C)NC(=O)[C@H](CO)NC(=O)[C@@H](NC(=O)[C@@H]1CCCN1C(=O)[C@@H]1CCCN1C(=O)[C@H](CCC(=O)O)NC(=O)[C@H](CCC(=O)O)NC(=O)[C@@H](N)CO)[C@@H](C)CC)[C@@H](C)O)C(C)C)[C@@H](C)CC)C(N)=O [synthetic rCRF] | ~100 | about 10 picomolar | > 5 | high potency; also recorded: stimulate ACTH and β-endorphin activies | increases activity | improves learning performance | dramatic effect to lower blood pressure | dramatic effect to lower blood pressure | substantially lower blood pressure for an extended time period | 5-20 fold | stimulate ACTH and β-endorphin activies | powerful stimulator of ACTH and β-END-LI secretion in vivo | 5 to 20 |  |  |
| H-Ser-Gln-Glu-Pro-Pro-Ile-Ser-Leu-Asp-Leu-Thr-Phe-His-Leu-Leu-Arg-Glu-Val-Leu-Glu-Met-Thr-Lys-Ala-Asp-Gln-Leu-Ala-Gln-Gln-Ala-His-Ser-Asn-Arg-Lys-Leu- Leu-Asp-Ile-Ala-NH2 (H-SQEPPISLDLTFHLLREVLEMTKADQLAQQAHSNRKLLDIA-NH2) [oCRF, ovine corticotropin releasing factor characterized in 1981] |  |  |  |  |  |  |  |  |  |  |  |  |  | stimulating the secretion of ACTH and β-endorphin | biological activity in lowering blood pressure in mammals |
